Source: PMC4211885 (PLoS ONE, 2014)
“Also recorded” adds a separate entry of the source.

Key:
[1] = test system: CFTR conductance (intracellular cAMP); assay: cAMP detection by whole oocyte (CFTR) conductance in oocytes co-expressing CFTR and OA/TAMac; assay type: cell-based, Xenopus laevis; settings: for Increase in cAMP levels (CFTR conductance): OA and TA at 100 µM or 1000 µM
Source text: It is also unlikely that the effects of tyramine at high concentration result from an increase in cAMP. It is common that octopaminergic GPCRs can couple through the canonical Gαs/cAMP pathway so we used co-expression of the Cystic Fibrosis Trans-membrane Conductance Regulator (CFTR) as a means of testing for increases in cAMP (see methods for more detail) [60]–[63].
As a means of detecting rises in intracellular cAMP levels we tested oocytes co-expressing the CFTR channel and OA/TAMac. Heterologously expressed CFTR can be used as an extremely sensitive assay for intracellular cAMP in Xenopus oocytes. CFTR mediates a chloride-selective leak conductance that is activated by increases in intracellular cAMP [63]. Activity of CFTR can thus be used to indicate whether changes in cAMP correspond with ligand application [60]–[62]. Whole oocyte conductance was monitored using a step protocol and calculated from I/V plots. The command voltage was stepped from the holding potential to various levels (−10 mV to −55 mV in −5 mV increments) for 150 ms. The steady state current during each step was plotted against the command voltage and fit to a line using Clampfit 10 software (Fig. S7A). The slope of the line was taken as the conductance. To minimize the magnitude of the holding current between drug applications, oocytes expressing CFTR were typically held at −20 mV which is close to the typical chloride reversal potential. This was confirmed by the fact that the direct-current evoked by forskolin could appear inward or outward at −20 mV. Oocytes expressing either OA/TAMac alone or OA/TAMac and CFTR typically had resting membrane potentials between −20 mV and −30 mV (mean of −26±5 mV calculated from oocytes in Fig. S7) due to increased expression of endogenous chloride currents.
(A) The measurement of whole oocyte conductance was done by plotting steady state current against the command voltage recorded during a step protocol. It is defined as the slope (I/V) of the linear least squares regression line. In the example shown tyramine (TA) causes no apparent change in whole oocyte conductance. Octopamine (OA) causes a small change compared to the adenylate cyclase activator forskolin (FSK). […] These cumulative data are from 20 OA/TAMac and CFTR-injected oocytes and 6 OA/TAMac -only injected oocytes. Conductance was measured as shown in A. Not all compounds were tested in all oocytes. Each response is treated as an independent sample. Concentrations of OA and TA were at 100 µM or 1000 µM, FSK was at 50 µM. Some points obtained at 3 minutes were grouped with the 4 minute responses. (C) The change in conductance (Δg) occurring within oocytes as determined by the difference between baseline and the indicated time points post-application of compound. […]

OA/TAMac receptor = OA/TAMac receptor (Macrobrachium rosenbergii, UniProt D9U2B9); assay: Modulation of the transient calcium-dependent chloride current ICl-T in OA/TAMac-injected oocytes (voltage step protocol); assay type: cell-based; settings: for Effect on ICl-T at lower concentration: 1 µM and 100 µM, 8 minute applications, n = 5 at each concentration; for Effect on ICl-T during prolonged application: 1 mM (high concentration), n = 4 oocytes
Source text: The fluctuations in holding current that we refer to as ID have often been referred to as the calcium-dependent chloride current. These currents are in fact complex and are known to contain multiple poorly defined components that arise from a number of unidentified potassium, chloride and mixed cationic channels, [47]. For this reason, we tested the effect of tyramine and octopamine on one of the better characterized components, the transient calcium-dependent chloride current that we refer to as ICl-T after. This current, which has been referred to as Iout, [54], ICl-2 [55] or ICl1-T [53], can be clearly isolated from ID using a specific pulse protocol (Fig. 6A). Furthermore, ICl-T is known to increase in response to inositol 1,4,5-triphosphate (IP3) injection, [55]. Modulation of this current therefore provides additional insight into how IP3 related pathways might be affected by transmitter application.
Figure 6 Differential modulation of a transient chloride current by tyramine (TA) and octopamine (OA). ICl-T is an endogenous calcium-dependent transient chloride current coupled to extra-celluar calcium influx. It is thought to arise from a single type of channel. […] (A) The voltage command protocol used to measure ICl-T is shown with an example current. The first step to +40 mV from the holding potential of −20 mV evokes no ICl-T and provides the baseline. The hyperpolarizing step to −140 mV induces calcium influx that causes ICl-T to appear during the second step to +40 mV [53]. The amplitude of ICl-T was measured as the difference between the first step and the peak of the transient current evoked by the second. (B) Measurements of ICl-T were taken every minute during the ID evoked by long applications of 1 mM TA and 1 mM OA. The vertical lines are the currents evoked by the voltage command pulse used to measure ICl-T (as shown in A). Their true amplitude was clipped from the image during figure preparation. Below the trace individual ICl-T transients are shown. Δ ICl-T is the difference in amplitude of these transients measured at different time points. The amplitude of ICl-T increases during continuous TA application and decreases during continuous OA application. There was a 38 minute washout period between the TA and OA applications. […]
ICl-T was measured under two-electrode voltage-clamp by hyperpolarizing the oocyte to −140 mV after a step to +40 mV and stepping back to +40 mV (Fig. 6A). […] ICl-T is measured instead of Icat because ICl-T is a pure chloride conductance that likely arises from one ion channel population while Icat is complex arising from more than one conductance.
We monitored ICl-T over the course of extended transmitter applications using the described pulse protocol. […]

Chain of OA/TAMac receptor (D9U2B9 entry or part of it): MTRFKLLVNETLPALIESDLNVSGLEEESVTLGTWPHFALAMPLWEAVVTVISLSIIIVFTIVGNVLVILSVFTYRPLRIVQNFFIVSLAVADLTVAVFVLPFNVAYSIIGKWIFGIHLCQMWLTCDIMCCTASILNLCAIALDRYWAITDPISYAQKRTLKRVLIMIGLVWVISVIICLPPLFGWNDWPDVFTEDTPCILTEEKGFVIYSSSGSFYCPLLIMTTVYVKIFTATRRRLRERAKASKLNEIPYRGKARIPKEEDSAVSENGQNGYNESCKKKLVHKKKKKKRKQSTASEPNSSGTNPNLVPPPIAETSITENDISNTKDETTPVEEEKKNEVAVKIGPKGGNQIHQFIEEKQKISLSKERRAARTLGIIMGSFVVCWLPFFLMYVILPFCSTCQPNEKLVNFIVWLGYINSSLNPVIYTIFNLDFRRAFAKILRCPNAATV

SMILES	Increase in cAMP levels (CFTR conductance) [1]	Effect on ICl-T at lower concentration (OA/TAMac receptor)	Effect on ICl-T during prolonged application (OA/TAMac receptor)	Mean change in conductance (Δg) within oocytes ([1]; compiled from 12 oocytes, s.d. = 1.72 µS, high conductance outlier excluded) [µS]
NCC(O)c1ccc(O)cc1 (racemic) [octopamine, (+/−)-octopamine]	neither octopamine nor tyramine produced significant increases	no apparent effect	reversibly decreases; also recorded: decreased	
NCCc1ccc(O)cc1 [tyramine]	neither octopamine nor tyramine produced significant increases	increase	reversibly increases; also recorded: increased	0.30
